This data set is described as follows: rilpivirine particle size by wet dispersion laser diffraction. In kind it is physicochemical. The settings on record: rilpivirine nanoparticles used for the aqueous compositions of Example 5. The procedure: The compositions were freeze dried and reconstituted with water to provide 9 mL of the reconstituted aqueous composition at time t=0, freeze dried and reconstituted with water to provide 9 mL of the reconstituted aqueous composition after being stored under conditions of 25° C./60% RH and 40° C./75% RH for 1 month, and freeze dried and reconstituted with water to provide 9 mL of the reconstituted aqueous composition after being stored under conditions of 25° C./60% RH for 6 months. The rilpivirine particle sizes were measured in both instances following the method below.
The volume-based particle size distribution of the rilpivirine suspensions was determined by means of wet dispersion laser diffraction, using a Malvern Mastersizer 3000 laser diffraction (Malvern Instruments) and Hydro MV wet dispersion module.

`Cc1cc(/C=C/C#N)cc(C)c1Nc1ccnc(Nc2ccc(C#N)cc2)n1` [rilpivirine nanoparticles, 4-[[4-[[4-[(1E)-2-cyanoethenyl]-2,6-dimethylphenyl]amino]-2-pyrimidinyl]amino]-benzonitrile]: the Dv10 result was “about 96.5 nm”, the Dv50 result is listed as “about 224 nm” and the Dv90 entry is given as “about 509 nm”.

The values above are taken from patent publication US20250275967A1, “FREEZE DRIED COMPOSITIONS” (Janssen Sciences Ireland Unlimited Company, priority 2022, published 2025).
